Measured values taken from patent EP4803080A1, “METHOD FOR TREATING LEUKEMIA” (Shenzhen TargetRx Co., Ltd., priority 2023, dated 2025).
Read-outs that look alike come from different tables or passages of the source.

Assays:
[1] = test system: Ba/F3 BCR-ABL1 E255V/T315I; test: Cell growth inhibition activity test, single agents and combinations (CellTiter-Glo, Chou-Talalay); assay type: cell-based; details: Mus musculus, BaF3, 72 h
Method: (§1) A series of cell lines expressing BCR-ABL1 single mutations and compound mutations were constructed based on the Ba/F3 mouse pro-B cell line.
(§2) This assay utilized the CellTiter-Glo (CTG) kit provided by Promega, which is a homogeneous method for cell viability detection, measuring the viability of cultured cells by quantifying ATP. Cells were seeded in 96-well plates and treated with different concentrations of test substances. […] At the end of the treatment, CTG reagent (CellTiter-Glo kit) was added according to the manufacturer's instructions to detect cell viability values. Plates were read on a microplate reader (Biotek cytation 3.0). IC50 values were calculated using GraphPad Prism 7.0 software.

Ba/F3 BCR-ABL1 T315M = test: as above; assay type: cell-based, mouse
Method: as §1, §2

[2] = test system: Ba/F3 BCR-ABL1 Q252H/T315I; test: as above; assay type: cell-based, mouse; details: for IC50: Mus musculus, BaF3, 72 h
Method: as §1, §2

[3] = test system: Ba/F3 BCR-ABL1 Y253H/T315I; test: as above; assay type: cell-based, mouse; details: Mus musculus; for IC90: Fig. 3
Method: as §1, §2

[4] = Tissue distribution study using quantitative whole-body autoradiography (QWBA); assay type: in vivo, Long-Evans rats and Sprague-Dawley rats; details: single oral 50 mg/100 µCi/kg
Method: This test utilized a total of 8 male Long Evans (LE) rats, randomly designated as Gt1M01 to Gt1M08; and 4 Sprague-Dawley (SD) rats, with an equal number of males and females, randomly designated as Gt2M01 to Gt2M02 and Gt2F01 to Gt2F02. Each rat received a single oral dose of 50 mg/100 µCi/kg of [^14C]-Compound A via gavage. SD rats were euthanized at 4 hours and 72 hours post-dose (with the 72-hour rats serving as backups); LE rats were euthanized at 0.5 hours, 4 hours, 24 hours, 72 hours, 168 hours, 336 hours, 504 hours, and 840 hours post-dose (with the 504-hour and 840-hour rats serving as backups). According to the rat sequence numbers, one male and one female SD rat and one male LE rat were transferred to an induction chamber, euthanized with an overdose of carbon dioxide, and about 4 mL of whole blood was collected via cardiac puncture. Immediately after blood collection, the carcasses were immersed in a dry ice-hexane bath for freezing and fixation.
Plasma samples were obtained by low-temperature centrifugation of whole blood. After homogenization, aliquots of each plasma sample were mixed directly with scintillation fluid, and the radioactivity was measured using a liquid scintillation counter (LSC). Frozen carcasses were sectioned, dried, and exposed/developed to determine total radioactivity in tissues/regions (including gastrointestinal contents). Pharmacokinetic parameters for total radioactivity in plasma and tissues were calculated using a non-compartmental model with WinNonLin software (version 8.3, Certara). After development of sections at each time point, 46 tissues/regions (including gastrointestinal contents) were analyzed for LE rats, and 45 tissues/regions (including gastrointestinal contents) were analyzed for SD rats. The radioactivity concentrations in unanalyzed regions were all lower than the lowest concentration in the analyzed tissues or regions.

[5] = clinical dose of 45 mg QD; cited from earlier work

Q: For `COc1cc(Nc2c(C#N)cnc3cc(OCCCN4CCN(C)CC4)c(OC)cc23)c(Cl)cc1Cl` [bosutinib], which IC50 [1] is on record?
A: 3920 ± 1380 nM

Q: And the IC50 (Ba/F3 BCR-ABL1 T315M; Mus musculus, BaF3, 72 h)?
A: 3970 ± 151 nM

Q: What about the IC50 [2] of the same molecule?
A: 3130 ± 9.9 nM

Q: What about the IC50 ([3]; BaF3, 72 h) of the same molecule?
A: 3715 ± 9.9 nM

Q: With `O=C(Nc1ccc(OC(F)(F)Cl)cc1)c1cnc(N2CC[C@@H](F)C2)c(-c2cnccn2)c1` [[14C]-Compound A] as the molecule, how does the “Total Radioactivity, Plasma” value ([4]; Female SD rats, 4 hrs) read?
A: 15320 ng Eq./g

Q: What about the “Total Radioactivity, Whole brain” value ([4]; Female SD rats, 4 hrs) of the same molecule?
A: 9800 ng Eq./g

Q: What about the “Total Radioactivity, Plasma” value ([4]; Male LE rats, 0.5 hrs) of the same molecule?
A: 7131 ng Eq./g

Q: What about the “Total Radioactivity, Whole brain” value ([4]; Male LE rats, 0.5 hrs) of the same molecule?
A: 4885 ng Eq./g

Q: And the “Total Radioactivity, Plasma” value ([4]; Male LE rats, 4 hrs)?
A: 11981 ng Eq./g

Q: And the “Total Radioactivity, Whole brain” value ([4]; Male LE rats, 4 hrs)?
A: 6950 ng Eq./g

Q: And the “Total Radioactivity, Plasma” value ([4]; Male SD rats, 4 hrs)?
A: 10656 ng Eq./g

Q: What about the “Total Radioactivity, Whole brain” value ([4]; Male SD rats, 4 hrs) of the same molecule?
A: 6400 ng Eq./g

Q: For `Cc1ncc(NC(=O)c2ccc(CN3CCN(C)CC3)c(C(F)(F)F)c2)cc1Nc1nccc(-c2cccnc2)n1` [flumatinib], which IC50 ([3]; BaF3, 72 h, single agent, Y253H/T315I, 72 hours, read-out: IC50) is on record?
A: 8420 ± 245 nM

Q: For `Cc1ccc(C(=O)Nc2ccc(CN3CCN(C)CC3)c(C(F)(F)F)c2)cc1C#Cc1cnc2cccnn12` [ponatinib], which “minimum plasma concentration at steady state (Cssmin)” value [5] is on record?
A: 64.3 nM

Q: What about the anti-proliferative effect (Ba/F3 BCR-ABL1 T315M; single-agent ponatinib, Fig. 6) of the same molecule?
A: no anti-proliferative effect

Q: And the “inhibition of cell viability” value ([2]; single-agent ponatinib at 60 nM and 48 nM, Fig. 5)?
A: could be inhibited

Q: What about the IC90 ([3]; BaF3, read-out: IC90 value of ponatinib, ponatinib in combination with asciminib) of the same molecule?
A: 165 nM

Q: What about the IC90 ([3]; BaF3, read-out: IC90 value of ponatinib, ponatinib in combination with compound A) of the same molecule?
A: 60.9 nM

Q: Which results are given for `Cc1ccc(C(=O)Nc2ccc(CN3CCN(C)CC3)c(C(F)(F)F)c2)cc1C#Cc1cnc2[nH]ncc2c1` [olverembatinib]?
A: IC50 [1]: 25.8 ± 2.9 nM; IC50 [2]: 7.7 ± 0.01 nM; IC50 ([3]; BaF3, 72 h, read-out: IC50^I1): 36.9 nM; IC50 ([3]; BaF3, read-out: IC50^I2): 5.44 nM
